Assay results taken from patent publication US11077090B2, “Compounds and compositions and uses thereof” (Sunovion Pharmaceuticals Inc., priority 2016, dated 2021).

system: compound-treated mice; experiment: Neuropharmacological assay (SmartCube): behavioral activity signature and minimal effective dose; type: in vivo; conditions: MED = dose having 50% or more total activity
Method in brief: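 Video-recorded behavior is compared algorithmically against a reference-compound database, yielding class probabilities (best dose reported). Compounds given i.p. in NMP/PEG/propylene glycol 15 min pre-test at 3 doses; potency as MED, the dose (mpk, range usually 0.3–30) reaching ≥50% total activity.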

Row | Structure (SMILES) | Potency: minimal effective dose (MED)
1 | N[C@H]1COCc2ccc(F)cc21 (single isomer, unassigned) [Example 114] | C (>10 to ≤30 mpk)
2 | N[C@@H]1COCc2ccc3ccccc3c21 (single isomer, unassigned) [Example 117] | B (>3 to 10 mpk)
3 | N[C@H]1COCc2ccc3ccccc3c21 (single isomer, unassigned) [Example 118] | B (>3 to 10 mpk)
4 | Cc1ccc2c(c1)[C@H](N)COC2 [Example 123] | A (≤3 mpk)
5 | Cc1ccc2c(c1)[C@@H](N)COC2 [Example 124] | B (>3 to 10 mpk)

same assay, conditions: Mus musculus, ip, MED = dose having 50% or more total activity, read-out: Potency: minimal effective dose (MED)

Row | Structure (SMILES) | minimal effective dose [mg/kg]
6 | N[C@@H]1COCc2ccccc21 (single isomer, unassigned) [Example 111] | 3 to 10

same assay, conditions: i.p. 15 min before test, most efficacious dose(s)

Row | Structure (SMILES) | AD: ADHD (probability of activity signature) | AG: analgesic (probability of activity signature) | AX: anxiolytic (probability of activity signature) | CE: cognitive enhancer (probability of activity signature) | DP: anti-depressant (probability of activity signature) | MS: mood stabilizer (probability of activity signature) | PS: anti-psychotic (probability of activity signature) | SD: sedative hypnotic (probability of activity signature) | UN: uncharacterized CNS activity (probability of activity signature)
7 | N[C@@H]1COCc2ccccc21 (single isomer, unassigned) [Example 111] | + (LOQ ≤ + <5%) | ++ (5% ≤ ++ <25%) | ++ (5% ≤ ++ <25%) | ++ (5% ≤ ++ <25%) | ++ (5% ≤ ++ <25%) | + (LOQ ≤ + <5%) | ++ (5% ≤ ++ <25%) | + (LOQ ≤ + <5%) | +++ (25% ≤ +++ <50%)
8 | N[C@H]1COCc2ccc(F)cc21 (single isomer, unassigned) [Example 114] | + (LOQ ≤ + <5%) | ++ (5% ≤ ++ <25%) | ++ (5% ≤ ++ <25%) | ++ (5% ≤ ++ <25%) | ++ (5% ≤ ++ <25%) | + (LOQ ≤ + <5%) | ++ (5% ≤ ++ <25%) | + (LOQ ≤ + <5%) | +++ (25% ≤ +++ <50%)
9 | N[C@@H]1COCc2ccc3ccccc3c21 (single isomer, unassigned) [Example 117] | + (LOQ ≤ + <5%) | ++ (5% ≤ ++ <25%) | ++ (5% ≤ ++ <25%) | ++ (5% ≤ ++ <25%) | ++ (5% ≤ ++ <25%) | ++ (5% ≤ ++ <25%) | +++ (25% ≤ +++ <50%) | + (LOQ ≤ + <5%) | + (LOQ ≤ + <5%)
10 | N[C@H]1COCc2ccc3ccccc3c21 (single isomer, unassigned) [Example 118] | + (LOQ ≤ + <5%) | ++ (5% ≤ ++ <25%) | ++ (5% ≤ ++ <25%) | ++ (5% ≤ ++ <25%) | +++ (25% ≤ +++ <50%) | + (LOQ ≤ + <5%) | ++ (5% ≤ ++ <25%) | ++ (5% ≤ ++ <25%) | + (LOQ ≤ + <5%)
11 | Cc1ccc2c(c1)[C@H](N)COC2 [Example 123] | + (LOQ ≤ + <5%) | ++ (5% ≤ ++ <25%) | ++ (5% ≤ ++ <25%) | + (LOQ ≤ + <5%) | ++ (5% ≤ ++ <25%) | + (LOQ ≤ + <5%) | ++ (5% ≤ ++ <25%) | ++ (5% ≤ ++ <25%) | +++ (25% ≤ +++ <50%)
12 | Cc1ccc2c(c1)[C@@H](N)COC2 [Example 124] | + (LOQ ≤ + <5%) | ++ (5% ≤ ++ <25%) | +++ (25% ≤ +++ <50%) | ++ (5% ≤ ++ <25%) | ++ (5% ≤ ++ <25%) | + (LOQ ≤ + <5%) | ++ (5% ≤ ++ <25%) | ++ (5% ≤ ++ <25%) | +++ (25% ≤ +++ <50%)

system: Adult male AJ mice; experiment: Tail suspension test (TST); type: in vivo; parameters: key: −: No decrease in Mean Total Time Immobile; +: Significant decrease in Mean Total Time Immobile (P < 0.05 vs vehicle); conditions: 3 mg/kg PO
Text: The tail suspension test (TST) is a rodent screening test for potential (human) antidepressant drugs. It is based on the assumption that an animal will actively try to escape an aversive (stressful) stimulus. If escape is impossible, the animal will eventually stop trying (“give up”). In the TST, a mouse is suspended by the tail so that its body dangles in the air, head downward. Mice initially struggle to face upward and climb to a solid surface. When the animal stops struggling and hangs immobile it is considered to have “given up”. Shorter periods of immobility are characteristic of antidepressant-like activity. Accordingly, longer periods of immobility are considered indicative of a depressive-like state. It has been shown that treatment with an antidepressant drug will decrease the time the animal spends immobile. See generally L. Steru et al., Psychopharmacology (Berl). 1985; 85(3):367-70; B. Thierry et al., Psychopharmacology 1986; 90:284-85.
Adult male AJ mice from Jackson Laboratories received vehicle (sterile water) or test compound orally by gavage, or the positive control desipramine (20 mg/kg, i.p.), in 10 mL/kg injection volumes, 30 min before being subjected to the Tail Suspension Test. In this test, mice are placed in the Tail Suspension chambers (white polyvinylchloride cubicles measuring 33×33×31.75 cm Med Associates, Inc. St. Albans, Vt.) by a piece of transparent (Scotch®) tape attached to the tail, from about the mid-tail, with approximately 2 cm of tape past the end of the tail for 10 min during which the time spent immobile is measured. A reduction in total time immobile relative to the vehicle condition indicates an antidepressant drug-like response.

Row | Structure (SMILES) | Mean Total Time Immobile
13 | N[C@@H]1COCc2ccccc21 (single isomer, unassigned) [Example 111] | −

same assay, conditions: 10 mg/kg PO

Row | Structure (SMILES) | Mean Total Time Immobile
14 | N[C@@H]1COCc2ccccc21 (single isomer, unassigned) [Example 111] | −
15 | N[C@H]1COCc2ccc(F)cc21 (single isomer, unassigned) [Example 114] | −
16 | N[C@@H]1COCc2ccc3ccccc3c21 (single isomer, unassigned) [Example 117] | +
17 | N[C@H]1COCc2ccc3ccccc3c21 (single isomer, unassigned) [Example 118] | −
18 | Cc1ccc2c(c1)[C@H](N)COC2 [Example 123] | −
19 | Cc1ccc2c(c1)[C@@H](N)COC2 [Example 124] | −

same assay, conditions: 30 mg/kg PO

Row | Structure (SMILES) | Mean Total Time Immobile
20 | N[C@@H]1COCc2ccccc21 (single isomer, unassigned) [Example 111] | −
21 | N[C@H]1COCc2ccc(F)cc21 (single isomer, unassigned) [Example 114] | +
22 | N[C@@H]1COCc2ccc3ccccc3c21 (single isomer, unassigned) [Example 117] | −
23 | N[C@H]1COCc2ccc3ccccc3c21 (single isomer, unassigned) [Example 118] | −
24 | Cc1ccc2c(c1)[C@H](N)COC2 [Example 123] | −
25 | Cc1ccc2c(c1)[C@@H](N)COC2 [Example 124] | −
